Here are results for 21 compounds from patent US20260042755A1, “GPR6 INVERSE AGONISTS” (MapLight Therapeutics, Inc., priority 2022, published 2026).

For one test, the target named is T1, GPR6 (Homo sapiens, UniProt P46095).
T1 construct: expressed in transfected cells; host or cells: CHO cells
Description: GPR6 antagonist functional cAMP assay (LANCE Ultra cAMP TR-FRET, CHO cells stably expressing GPR6). It counts as cell-based. The method in brief:
(§1)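 Suspended cells were plated at 10,000 per well in Krebs-Ringer bicarbonate buffer containing 0.1% BSA and 150 μM Ro 20-1724, then treated with compounds for 45 min at 37 °C. Intracellular cAMP was then quantified by TR-FRET immunoassay.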

The target in the next test is T2, GPR3 (Homo sapiens, UniProt P46089).
T2 construct: expressed in transfected cells; host or cells: CHO cells
T2 sequence (P46089 whole entry, species assumed): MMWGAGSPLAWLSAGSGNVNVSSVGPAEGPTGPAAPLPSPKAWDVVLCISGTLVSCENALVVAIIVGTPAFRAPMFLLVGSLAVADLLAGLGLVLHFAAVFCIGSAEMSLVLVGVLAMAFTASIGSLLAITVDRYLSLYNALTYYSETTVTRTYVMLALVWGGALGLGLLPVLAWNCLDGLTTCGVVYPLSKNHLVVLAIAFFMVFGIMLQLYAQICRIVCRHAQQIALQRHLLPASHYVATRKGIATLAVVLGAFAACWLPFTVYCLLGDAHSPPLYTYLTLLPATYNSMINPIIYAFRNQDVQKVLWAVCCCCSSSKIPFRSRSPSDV
Description: GPR3 antagonist functional cAMP assay (LANCE Ultra cAMP TR-FRET, CHO cells stably expressing GPR3). It counts as cell-based. In short, it runs like this: as §1

The mark [1] stands for this setting: procedure as described in Example 24.
[2] abbreviates: CHO cells stably expressing GPR6, cAMP assay (Example 24).
The mark [3] stands for this setting: CHO cells stably expressing GPR3, cAMP assay (Example 24).
The mark [4] stands for this setting: CHO cells stably expressing GPR6, cAMP assay.
Setting [5] is: CHO cells stably expressing GPR3, cAMP assay.

For orientation: IC50 means the concentration that gives 50% inhibition. A low value points to inhibition by little substance.

T1 sequence (P46095 whole entry): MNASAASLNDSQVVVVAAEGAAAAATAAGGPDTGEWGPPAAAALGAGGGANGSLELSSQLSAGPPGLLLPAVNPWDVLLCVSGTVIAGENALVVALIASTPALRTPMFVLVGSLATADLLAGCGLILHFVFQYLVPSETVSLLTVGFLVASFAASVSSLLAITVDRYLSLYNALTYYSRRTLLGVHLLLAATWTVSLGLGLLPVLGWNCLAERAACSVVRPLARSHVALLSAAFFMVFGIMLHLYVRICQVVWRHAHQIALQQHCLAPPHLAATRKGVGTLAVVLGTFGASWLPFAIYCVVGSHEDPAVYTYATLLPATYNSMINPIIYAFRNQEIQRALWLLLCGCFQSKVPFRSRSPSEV

For the compound `Fc1ccc(OC2CCN(c3nc4ccncc4nc3-c3ncc[nH]3)CC2)c(F)c1` [Compound 41, 4-(2,4-difluorophenoxy)-1-[3-(1H-imidazol-2-yl)pyrido[3,4-b]pyrazin-2-yl]piperidine], the concentration for half-maximal inhibition (IC50) against GPR6 (setting [1]) and against GPR3 (setting [1]) was 1000 to 30000 nM each time.

Turning to `CC(=O)N1CCc2nc(N3CCC(Oc4ccc(F)cc4F)CC3)c(-c3cncc(OC(F)F)n3)nc2C1` [Compound 239, 1-{3-[6-(difluoromethoxy)pyrazin-2-yl]-2-[4-(2,4-difluorophenoxy)piperidin-1-yl]-5H,6H,7H,8H-pyrido[3,4-b]pyrazin-6-yl}ethan-1-one], the IC50 against GPR6 (setting [2]) and against GPR3 (setting [3]) was 1000 to 30000 nM each time.

Take `CCOC(=O)N1CCc2nc(N3CCC(Oc4ccc(F)cc4F)CC3)c(-c3cnn(CC)c3)nc2C1` [Compound 299, ethyl 2-[4-(2,4-difluorophenoxy)piperidin-1-yl]-3-(1-ethyl-1H-pyrazol-4-yl)-5H,6H,7H,8H-pyrido[3,4-b]pyrazine-6-carboxylate]: the IC50 against GPR6 (procedure of Example 24) was less than 100 nM; on GPR3 (procedure of Example 24), 1000 to 30000 nM.

For `CC(=O)N1CCc2nc(N3CCN(Cc4cccnc4)CC3)c(-c3cnn(C)c3)nc2C1` [Compound 517, 1-[3-(1-methyl-4-pyrazolyl)-2-{4-[(3-pyridyl)methyl]-1-piperazinyl}-5,6,7,8-tetrahydro-1,4,6-triaza-6-naphthyl]-1-ethanone], the IC50 on GPR6 (setting [4]) and against GPR3 (setting [5]) was no less than 30000 nM throughout.

As for `CC(=O)N1CCc2nc(N3CCN(Cc4ccsc4)CC3)c(-c3cnn(C)c3)nc2C1` [Compound 514, 1-[3-(1-methyl-4-pyrazolyl)-2-{4-[(3-thienyl)methyl]-1-piperazinyl}-5,6,7,8-tetrahydro-1,4,6-triaza-6-naphthyl]-1-ethanone], the IC50 against GPR6 (setting [4]) and against GPR3 (setting [5]) was 1000 to 30000 nM in each case.

With `CC(=O)N1CCc2nc(N3CCC(Oc4ccc(F)cc4F)CC3)c(-c3nccs3)nc2C1` [Compound 75, 1-{2-[4-(2,4-difluorophenoxy)piperidin-1-yl]-3-(1,3-thiazol-2-yl)-5H,6H,7H,8H-pyrido[3,4-b]pyrazin-6-yl}ethan-1-one], the half-inhibitory concentration (IC50) against GPR6 (setting [2]) and at GPR3 (setting [3]) was 1000 to 30000 nM each time.

Regarding `CC(C)(O)[C@H](O)c1cc2nc(N3CCC(=Cc4ccc(F)cc4F)CC3)c(-c3cnn(CF)c3)nc2cn1` (single isomer, unassigned) [Compound 784], the results for the IC50 against GPR6 (procedure of Example 24) and against GPR3 (procedure of Example 24) were less than 100 nM and 1000 to 30000 nM, respectively.

On to `CC(C)(O)C(O)c1cc2nc(-c3cnn(C(F)F)c3)c(N3CCN(Cc4ccc(F)cc4F)CC3)nc2cn1` (single isomer, unassigned) [Compound 586], for which the 50% inhibitory concentration (IC50) on GPR6 (setting [4]) is less than 100 nM; on GPR3 (setting [5]), 100 to 1000 nM.

In the case of `COc1cnnc(-c2nc3c(nc2N2CCC(Oc4ccc(F)cc4F)CC2)CCN(C(C)=O)C3)c1` [Compound 192, 1-{2-[4-(2,4-difluorophenoxy)piperidin-1-yl]-3-(5-methoxypyridazin-3-yl)-5H,6H,7H,8H-pyrido[3,4-b]pyrazin-6-yl}ethan-1-one], the 50% inhibitory concentration (IC50) at GPR6 (setting [2]) and against GPR3 (setting [3]) was 1000 to 30000 nM in each case.

For `CC(=O)N1CCc2nc(N3CCN(Cc4ccncc4)CC3)c(-c3cnn(C)c3)nc2C1` [Compound 518, 1-[3-(1-methyl-4-pyrazolyl)-2-{4-[(4-pyridyl)methyl]-1-piperazinyl}-5,6,7,8-tetrahydro-1,4,6-triaza-6-naphthyl]-1-ethanone], the IC50 on GPR6 (setting [4]) and at GPR3 (setting [5]) was 1000 to 30000 nM each time.

For the compound `C=CC(=O)N1CCc2nc(N3CCC(Oc4ccc(F)cc4F)CC3)c(-c3cn[nH]c3)nc2C1` [Compound 203, 1-{2-[4-(2,4-difluorophenoxy)piperidin-1-yl]-3-(1H-pyrazol-4-yl)-5H,6H,7H,8H-pyrido[3,4-b]pyrazin-6-yl}prop-2-en-1-one], the IC50 on GPR6 (setting [2]) was less than 100 nM; on GPR3 (setting [3]) it was 1000 to 30000 nM.

Turning to `Cn1cc(-c2nc3cc(C(C)(O)CO)ncc3nc2N2CCC(Oc3ccc(F)cc3F)CC2)cn1` (stereo not drawn) [Compound 645, 2-{3-[4-(2,4-difluorophenoxy)-1-piperidyl]-2-(1-methyl-4-pyrazolyl)-1,4,6-triaza-7-naphthyl}-1,2-propanediol], the IC50 against GPR6 (procedure of Example 24) was 100 to 1000 nM; against GPR3 (procedure of Example 24), 1000 to 30000 nM.

Regarding `CC(=O)N1CCc2nc(N3CCC(Oc4ccc(F)cc4F)CC3)c(-c3cnn(C(F)F)c3)nc2C1` [Compound 15, 1-{3-[1-(difluoromethyl)-1H-pyrazol-4-yl]-2-[4-(2,4-difluorophenoxy)piperidin-1-yl]-5H,6H,7H,8H-pyrido[3,4-b]pyrazin-6-yl}ethan-1-one], the IC50 at GPR6 (setting [1]) lay in the range of 100 to 1000 nM; on GPR3 (setting [1]), 1000 to 30000 nM.

As to `CCn1cc(-c2nc3cnccc3nc2N2CCC(Oc3cc(Cl)ccc3F)CC2)cn1` [Compound 295, 4-(5-chloro-2-fluorophenoxy)-1-[3-(1-ethyl-1H-pyrazol-4-yl)pyrido[3,4-b]pyrazin-2-yl]piperidine], the IC50 against GPR6 (procedure of Example 24) is less than 100 nM; at GPR3 (procedure of Example 24), 1000 to 30000 nM.

For the compound `O=C(O)c1cc2nc(-c3cnn(CF)c3)c(N3CCN(Cc4ccc(F)cc4F)CC3)nc2cn1` [Compound 765, 3-{4-[(2,4-difluorophenyl)methyl]-1-piperazinyl}-2-[1-(fluoromethyl)-4-pyrazolyl]-1,4,6-triaza-7-naphthoic acid], the IC50 against GPR6 (procedure of Example 24) and against GPR3 (procedure of Example 24) was 1000 to 30000 nM in each case.

For the compound `CC(=O)N1CCc2nc(N3CCC(C(F)c4ccc(F)cc4F)CC3)c(-c3cnn(C)c3)nc2C1` (stereo not drawn) [Compound 557, 1-(2-{4-[(2,4-difluorophenyl)fluoromethyl]-1-piperidyl}-3-(1-methyl-4-pyrazolyl)-5,6,7,8-tetrahydro-1,4,6-triaza-6-naphthyl)-1-ethanone], the IC50 on GPR6 (setting [4]) and on GPR3 (setting [5]) was less than 100 nM throughout.

For the compound `CC(=O)N1CCc2nc(N3CCC(C(=O)N4CCOCC4)C3)c(-c3cnn(C)c3)nc2C1` (stereo not drawn) [Compound 389, 1-[3-(1-methyl-1H-pyrazol-4-yl)-2-[3-(morpholine-4-carbonyl)pyrrolidin-1-yl]-5H,6H,7H,8H-pyrido[3,4-b]pyrazin-6-yl]ethan-1-one], the IC50 against GPR6 (setting [2]) was no less than 30000 nM; on GPR3 (setting [3]), 1000 to 30000 nM.

Consider `CC(C)(O)[C@](C)(O)c1cc2nc(N3CCN(Cc4ccccc4F)CC3)c(-c3cnn(CF)c3)nc2cn1` (single isomer, unassigned) [Compound 675], for which the IC50 against GPR6 (procedure of Example 24) is 100 to 1000 nM; against GPR3 (procedure of Example 24) it was 1000 to 30000 nM.

With `CC(=O)N1CCc2nc(N3CCC(Oc4ccc(F)cc4F)CC3)c(-c3cccc(-c4cn[nH]c4)n3)nc2C1` [Compound 166, 1-{2-[4-(2,4-difluorophenoxy)piperidin-1-yl]-3-[6-(1H-pyrazol-4-yl)pyridin-2-yl]-5H,6H,7H,8H-pyrido[3,4-b]pyrazin-6-yl}ethan-1-one], the IC50 lay within 100 to 1000 nM at GPR6 (setting [2]) and 1000 to 30000 nM against GPR3 (setting [3]).

In the case of `COC1CCCC(c2nc3c(nc2N2CCC(Oc4ccc(F)cc4F)CC2)CCN(C(C)=O)C3)C1` (stereo not drawn) [Compound 248, 1-{2-[4-(2,4-difluorophenoxy)piperidin-1-yl]-3-(3-methoxycyclohexyl)-5H,6H,7H,8H-pyrido[3,4-b]pyrazin-6-yl}ethan-1-one], the IC50 at GPR6 (setting [2]) and on GPR3 (setting [3]) was 1000 to 30000 nM throughout.

For the compound `CC(=O)N1CCc2nc(N3CCN(Cc4ccccc4C)CC3)c(-c3cnn(C)c3)nc2C1` [Compound 510, 1-[3-(1-methyl-4-pyrazolyl)-2-{4-[(o-tolyl)methyl]-1-piperazinyl}-5,6,7,8-tetrahydro-1,4,6-triaza-6-naphthyl]-1-ethanone], the IC50 on GPR6 (setting [4]) and against GPR3 (setting [5]) was 1000 to 30000 nM in each case.
